Source: ChEMBL document CHEMBL5620440, “Anti-trypanosomal Lignans Isolated from Salvadoran Peperomia pseudopereskiifolia” (J Nat Prod, 2024)
Active and inactive are the calls of the source. The calls are words filed in the database; no cut-off is given here.

Tests used:
[1] = tested on: Trypanosoma cruzi; test: Antitrypanosomal activity against Trypanosoma cruzi Tulahuen amastigotes infected in human HT-1080 cells assessed as reduction in parasite growth by microscopic analysis; format: functional, organism-based
[2] = Selectivity index, ratio of CC50 for cytotoxicity for human HT-1080 cells to IC50 for antitrypanosomal activity against Trypanosoma cruzi Tulahuen infected in human HT-1080 cells; format: toxicity, cell-based; settings: read-out: Ratio CC50/IC50
[3] = Cytotoxicity against human HT-1080 cells assessed reduction in cell viability; format: toxicity, cell-based
[4] = tested on: Trypanosoma cruzi; test: Potency index, ratio of benznidazole IC50 to test compound IC50 for antitrypanosomal activity against Trypanosoma cruzi Tulahuen amastigotes infected in human HT-1080 cells assessed as reduction in parasite growth by microscopic analysis; format: functional

Row | IC50 [1] [µM] | SMILES | selectivity ratio [2] | CC50 [3] [µM] | Activity [1] | Ratio IC50 [4]
1 | 10.5 | COc1ccc([C@@H](O)[C@H]2CO[C@@H](c3ccc(OC)c(OC)c3)[C@@H]2COC(C)=O)cc1OC | > 9.52 | > 100 | – | –
2 | 2.8 | COc1ccc([C@@H](O)[C@H]2CO[C@@H](c3ccc(OCc4ccccc4)c(OC)c3)[C@@H]2COC(C)=O)cc1OC | > 35.7 | > 100 | – | –
3 | – | CCOc1ccc([C@@H]2OC[C@H](C(=O)c3ccc(OC)c(OC)c3)[C@H]2COC(C)=O)cc1OC | – | – | inactive | –
4 | 1.1 | O=C(Cn1ccnc1[N+](=O)[O-])NCc1ccccc1 [BENZNIDAZOLE] | > 90.9 | > 100 | – | –
5 | – | COc1cc([C@@H]2OC[C@H]([C@H](O)c3ccc(OC)c(OC)c3)[C@H]2CO)ccc1O | – | – | inactive | –
6 | 3.3 | CCOc1ccc([C@@H]2OC[C@H]([C@H](O)c3ccc(OC)c(OC)c3)[C@H]2COC(C)=O)cc1OC | > 30.3 | > 100 | – | –
7 | – | COc1cc([C@@H]2OC[C@H]([C@H](O)c3ccc(OC)c(OC)c3)[C@H]2COC(C)=O)ccc1O | – | – | inactive | –
8 | – | COc1ccc([C@@H](O)[C@H]2CO[C@@H](c3ccc(OC)c(OC)c3)[C@@H]2CO)cc1OC | – | – | inactive | –
9 | 0.4 | COc1c([C@H]2OC[C@H]3[C@H]2CO[C@@H]3c2ccc3c(c2)OCO3)ccc2c1OCO2 | > 250 | > 100 | – | ~3
